Test results from PubChem BioAssay (NCI).
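GI50 = concentration required for 50% inhibition of growth. TGI is the concentration that stops growth completely.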

Assays:
Test in all cases: inhibition of tumour cell growth, NCI panel, 384-well format
[1] = system: HOP-92 NSCLC
[2] = system: SK-OV-3 ovarian
[3] = system: MDA-MB-231 breast
[4] = system: CAKI-1 renal
[5] = system: OVCAR-4 ovarian
[6] = system: HCC-2998 colon
[7] = system: COLO 205 colon
[8] = system: U251 glioblastoma
[9] = system: A498 renal
[10] = system: NCI-H226 lung
[11] = system: NCI-H322M lung
[12] = system: LOX IMVI melanoma
[13] = system: SW-620 colon
[14] = system: EKVX NSCLC
[15] = system: TK-10 renal
[16] = system: IGROV1 ovarian
[17] = system: M14 melanoma
[18] = system: MCF7 breast
[19] = system: OVCAR-3 ovarian
[20] = system: SF-539 CNS
[21] = system: SN12C renal
[22] = system: SNB-75 CNS
[23] = system: T-47D breast
[24] = system: OVCAR-5 ovarian
[25] = system: SNB-19 CNS
[26] = system: NCI-H23 lung
[27] = system: MDA-MB-435 melanoma
[28] = system: PC-3 prostate
[29] = system: MALME-3M melanoma
[30] = system: ACHN renal
[31] = system: MOLT-4 leukemia
[32] = system: UO-31 renal
[33] = system: BT-549 breast
[34] = system: NCI-H522 lung
[35] = system: SR leukemia
[36] = system: SF-268 CNS
[37] = system: NCI/ADR-RES ovarian
[38] = system: KM12 colon
[39] = system: SK-MEL-28 melanoma
[40] = system: DU-145 prostate
[41] = system: NCI-H460 NSCLC
[42] = system: 786-0 renal
[43] = system: HT29 colon
[44] = system: SF-295 CNS
[45] = system: MDA-MB-468 breast
[46] = system: HS 578T breast
[47] = system: CCRF-CEM leukemia
[48] = system: HOP-62 NSCLC
[49] = system: RPMI-8226 leukemia
[50] = system: A549 NSCLC
[51] = system: K-562 leukemia
[52] = system: OVCAR-8 ovarian
[53] = system: HCT-15 colon
[54] = system: HCT-116 colon
[55] = system: UACC-257 melanoma
[56] = system: HL-60(TB) leukemia
[57] = system: RXF 393 renal
[58] = system: SK-MEL-5 melanoma
[59] = system: UACC-62 melanoma
[60] = system: SK-MEL-2 melanoma

`Cn1cc(-c2ccc3nnc(C(F)(F)c4ccc5ncccc5c4)n3n2)cn1` was tested, and the GI50 [1] was 39.7 µM, the TGI [1] was > 100 µM and the GI50 [2] was 75.5 µM. The TGI [2] was > 100 µM, the GI50 [3] was 53.5 µM and the TGI [3] was > 100 µM. For the same molecule, the GI50 [4] was 46.4 µM, the TGI [4] was > 100 µM and the GI50 [5] was 59.9 µM. For the same molecule, the TGI [5] was > 100 µM, the GI50 [6] was 49.9 µM and the TGI [6] was > 100 µM. The GI50 [7] was 99 µM, the TGI [7] was > 100 µM and the GI50 [8] was 66.3 µM. The TGI [8] was > 100 µM, the GI50 [9] was 63.2 µM and the TGI [9] was > 100 µM. For the same molecule, the GI50 [10] was 56.3 µM, the TGI [10] was > 100 µM and the GI50 [11] was 62.9 µM. For the same molecule, the TGI [11] was > 100 µM, the GI50 [12] was 68.5 µM and the TGI [12] was > 100 µM. For the same molecule, the GI50 [13] was > 100 µM, the TGI [13] was > 100 µM and the GI50 [14] was 52.6 µM. For the same molecule, the TGI [14] was > 100 µM, the GI50 [15] was 47.6 µM and the TGI [15] was > 100 µM. The GI50 [16] was 58.2 µM, the TGI [16] was > 100 µM and the GI50 [17] was > 100 µM. For the same molecule, the TGI [17] was > 100 µM, the GI50 [18] was 41.8 µM and the TGI [18] was > 100 µM. For the same molecule, the GI50 [19] was 61.8 µM, the TGI [19] was > 100 µM and the GI50 [20] was 56.3 µM. For the same molecule, the TGI [20] was > 100 µM, the GI50 [21] was 45.2 µM and the TGI [21] was > 100 µM. For the same molecule, the GI50 [22] was 43.1 µM, the TGI [22] was > 100 µM and the GI50 [23] was 41.1 µM. The TGI [23] was > 100 µM, the GI50 [24] was 59.8 µM and the TGI [24] was > 100 µM. The GI50 [25] was 67.3 µM, the TGI [25] was > 100 µM and the GI50 [26] was 25 µM. For the same molecule, the TGI [26] was > 100 µM, the GI50 [27] was > 100 µM and the TGI [27] was > 100 µM. For the same molecule, the GI50 [28] was 52.9 µM, the TGI [28] was > 100 µM and the GI50 [29] was 65 µM. The TGI [29] was > 100 µM, the GI50 [30] was 46.1 µM and the TGI [30] was > 100 µM. The GI50 [31] was 17.6 µM, the TGI [31] was 36.4 µM and the GI50 [32] was 58.6 µM. The TGI [32] was > 100 µM, the GI50 [33] was 38.1 µM and the TGI [33] was > 100 µM. For the same molecule, the GI50 [34] was 41.6 µM, the TGI [34] was > 100 µM and the GI50 [35] was 24.2 µM. For the same molecule, the TGI [35] was > 100 µM, the GI50 [36] was 98.1 µM and the TGI [36] was > 100 µM. The GI50 [37] was 41.4 µM, the TGI [37] was > 100 µM and the GI50 [38] was 47.8 µM. For the same molecule, the TGI [38] was > 100 µM, the GI50 [39] was > 100 µM and the TGI [39] was > 100 µM. For the same molecule, the GI50 [40] was 59.1 µM, the TGI [40] was > 100 µM and the GI50 [41] was 45.8 µM. The TGI [41] was > 100 µM, the GI50 [42] was 43.9 µM and the TGI [42] was > 100 µM. The GI50 [43] was 95.3 µM, the TGI [43] was > 100 µM and the GI50 [44] was 2.06 µM. For the same molecule, the TGI [44] was > 100 µM, the GI50 [45] was 10.2 µM and the TGI [45] was 59.6 µM. The GI50 [46] was 35.3 µM, the TGI [46] was > 100 µM and the GI50 [47] was 48.5 µM. The TGI [47] was > 100 µM, the GI50 [48] was 41.2 µM and the TGI [48] was > 100 µM. For the same molecule, the GI50 [49] was 23.7 µM, the TGI [49] was 97.8 µM and the GI50 [50] was 85.5 µM. For the same molecule, the TGI [50] was > 100 µM, the GI50 [51] was 53.6 µM and the TGI [51] was > 100 µM. For the same molecule, the GI50 [52] was 61.4 µM, the TGI [52] was > 100 µM and the GI50 [53] was 60.5 µM. For the same molecule, the TGI [53] was > 100 µM, the GI50 [54] was 49.2 µM and the TGI [54] was > 100 µM. The GI50 [55] was > 100 µM, the TGI [55] was > 100 µM and the GI50 [56] was 36.3 µM. For the same molecule, the TGI [56] was > 100 µM, the GI50 [57] was 25.2 µM and the TGI [57] was 72.7 µM. For the same molecule, the GI50 [58] was 29.7 µM and the TGI [58] was > 100 µM.
For `CS(=O)(=O)c1ccc(-c2cnc(NCc3ccco3)n3cnnc23)cc1`, the GI50 [1] was > 55.1 µM, the TGI [1] was > 100 µM and the GI50 [2] was > 100 µM. For the same molecule, the TGI [2] was > 100 µM, the GI50 [3] was > 100 µM and the TGI [3] was > 100 µM. For the same molecule, the GI50 [4] was > 100 µM, the TGI [4] was > 100 µM and the GI50 [5] was > 100 µM. The TGI [5] was > 100 µM, the GI50 [6] was > 100 µM and the TGI [6] was > 100 µM. The GI50 [7] was 35.8 µM, the TGI [7] was > 100 µM and the GI50 [8] was > 100 µM. The TGI [8] was > 100 µM, the GI50 [9] was > 100 µM and the TGI [9] was > 100 µM. For the same molecule, the GI50 [10] was > 100 µM, the TGI [10] was > 100 µM and the GI50 [11] was > 100 µM. For the same molecule, the TGI [11] was > 100 µM, the GI50 [12] was 52.8 µM and the TGI [12] was > 100 µM. The GI50 [59] was 27.1 µM, the TGI [59] was > 100 µM and the GI50 [13] was > 100 µM. For the same molecule, the TGI [13] was > 100 µM, the GI50 [14] was > 100 µM and the TGI [14] was > 100 µM. For the same molecule, the GI50 [15] was > 100 µM, the TGI [15] was > 100 µM and the GI50 [16] was > 100 µM. For the same molecule, the TGI [16] was > 100 µM, the GI50 [17] was 29.6 µM and the TGI [17] was > 100 µM. The GI50 [18] was > 100 µM, the TGI [18] was > 100 µM and the GI50 [19] was > 100 µM. For the same molecule, the TGI [19] was > 100 µM, the GI50 [20] was > 100 µM and the TGI [20] was > 100 µM. For the same molecule, the GI50 [21] was > 100 µM, the TGI [21] was > 100 µM and the GI50 [22] was > 100 µM. For the same molecule, the TGI [22] was > 100 µM, the GI50 [23] was 66.3 µM and the TGI [23] was > 100 µM. For the same molecule, the GI50 [24] was > 100 µM, the TGI [24] was > 100 µM and the GI50 [25] was > 100 µM. The TGI [25] was > 100 µM, the GI50 [26] was > 100 µM and the TGI [26] was > 100 µM. The GI50 [27] was > 87.3 µM, the TGI [27] was > 100 µM and the GI50 [28] was > 100 µM. The TGI [28] was > 100 µM, the GI50 [29] was 16.9 µM and the TGI [29] was 45.3 µM. For the same molecule, the GI50 [30] was > 100 µM, the TGI [30] was > 100 µM and the GI50 [31] was 49 µM. For the same molecule, the TGI [31] was > 100 µM, the GI50 [32] was > 100 µM and the TGI [32] was > 100 µM. The GI50 [33] was > 100 µM, the TGI [33] was > 100 µM and the GI50 [34] was > 100 µM. The TGI [34] was > 100 µM, the GI50 [35] was > 100 µM and the TGI [35] was > 100 µM. The GI50 [36] was > 100 µM, the TGI [36] was > 100 µM and the GI50 [37] was > 100 µM. The TGI [37] was > 100 µM, the GI50 [38] was > 100 µM and the TGI [38] was > 100 µM. For the same molecule, the GI50 [39] was 30.3 µM, the TGI [39] was > 100 µM and the GI50 [40] was > 100 µM. For the same molecule, the TGI [40] was > 100 µM, the GI50 [41] was > 100 µM and the TGI [41] was > 100 µM. For the same molecule, the GI50 [42] was > 100 µM, the TGI [42] was > 100 µM and the GI50 [43] was 61.3 µM. The TGI [43] was > 100 µM, the GI50 [44] was > 100 µM and the TGI [44] was > 100 µM. For the same molecule, the GI50 [45] was 17.3 µM, the TGI [45] was 49.3 µM and the GI50 [46] was > 100 µM. The TGI [46] was > 100 µM, the GI50 [47] was > 85.5 µM and the TGI [47] was > 100 µM. The GI50 [48] was > 100 µM, the TGI [48] was > 100 µM and the GI50 [49] was 6.1 µM. For the same molecule, the TGI [49] was > 33.7 µM, the GI50 [50] was > 100 µM and the TGI [50] was > 100 µM. The GI50 [51] was > 95.2 µM, the TGI [51] was > 100 µM and the GI50 [52] was > 100 µM. For the same molecule, the TGI [52] was > 100 µM, the GI50 [53] was > 100 µM and the TGI [53] was > 100 µM. For the same molecule, the GI50 [54] was > 100 µM, the TGI [54] was > 100 µM and the GI50 [55] was 52.1 µM. The TGI [55] was > 100 µM, the GI50 [60] was > 100 µM and the TGI [60] was > 100 µM. For the same molecule, the GI50 [56] was 72.2 µM, the TGI [56] was > 100 µM and the GI50 [57] was > 76.7 µM. For the same molecule, the TGI [57] was > 100 µM, the GI50 [58] was 37.2 µM and the TGI [58] was > 100 µM.
